# According to ChEMBL document CHEMBL5113392, “Novel hybrid pyrrolidinedione-thiazolidinones as potential anticancer agents: Synthesis and biological evaluation” (Eur J Med Chem, 2022):
# What was measured:
# [1] = system: HOP-92; experiment: Anticancer activity against human HOP-92 cells assessed as growth inhibition incubated for 48 hrs by SRB assay; assay type: functional
# [2] = system: UACC-62; experiment: Anticancer activity against human UACC-62 cells assessed as lethality incubated for 48 hrs by SRB assay; assay type: functional; conditions: read-out: LC50 (the source's name)
# [3] = system: SNB-19; experiment: Anticancer activity against human SNB-19 cells assessed as lethality incubated for 48 hrs by SRB assay; assay type: functional; conditions: read-out: LC50 (the source's name)
# [4] = system: MDA-MB-231; experiment: Anticancer activity against human MDA-MB-231 cells assessed as cell growth inhibition incubated for 72 hrs by MTT assay; assay type: functional
# [5] = system: T47D; experiment: Anticancer activity against human T47D cells assessed as total growth inhibition incubated for 48 hrs by SRB assay; assay type: functional
# [6] = system: UACC-257; experiment: Anticancer activity against human UACC-257 cells assessed as lethality incubated for 48 hrs by SRB assay; assay type: functional; conditions: read-out: LC50 (the source's name)
# [7] = system: NCI/ADR-RES; experiment: Anticancer activity against human NCI/ADR-RES cells assessed as growth inhibition incubated for 48 hrs by SRB assay; assay type: functional
# [8] = system: HOP-62; experiment: Anticancer activity against human HOP-62 cells assessed as lethality incubated for 48 hrs by SRB assay; assay type: functional; conditions: read-out: LC50 (the source's name)
# [9] = system: OVCAR-4; experiment: Anticancer activity against human OVCAR-4 cells assessed as lethality incubated for 48 hrs by SRB assay; assay type: functional; conditions: read-out: LC50 (the source's name)
# [10] = system: HCT-116; experiment: Anticancer activity against human HCT-116 cells assessed as total growth inhibition incubated for 48 hrs by SRB assay; assay type: functional
# [11] = system: MOLT-4; experiment: Anticancer activity against human MOLT-4 cells assessed as growth inhibition incubated for 48 hrs by SRB assay; assay type: functional
# [12] = system: HOP-92; experiment: Anticancer activity against human HOP-92 cells assessed as lethality incubated for 48 hrs by SRB assay; assay type: functional; conditions: read-out: LC50 (the source's name)
# [13] = system: MDA-MB-468; experiment: Anticancer activity against human MDA-MB-468 cells assessed as growth inhibition incubated for 48 hrs by SRB assay; assay type: functional
# [14] = system: SW-620; experiment: Anticancer activity against human SW-620 cells assessed as lethality incubated for 48 hrs by SRB assay; assay type: functional; conditions: read-out: LC50 (the source's name)
# [15] = system: SF-539; experiment: Anticancer activity against human SF-539 cells assessed as growth inhibition incubated for 48 hrs by SRB assay; assay type: functional
# [16] = system: HCC 2998; experiment: Anticancer activity against human HCC 2998 cells assessed as lethality incubated for 48 hrs by SRB assay; assay type: functional; conditions: read-out: LC50 (the source's name)
# [17] = system: MDA-MB-468; experiment: Anticancer activity against human MDA-MB-468 cells assessed as total growth inhibition incubated for 48 hrs by SRB assay; assay type: functional
# [18] = Selectivity index, ratio of GI50 for human HaCaT cells to GI50 for human HCT116-p53-null cells; assay type: toxicity; conditions: HaCaT cells versus HCT116-p53-null cells, read-out: RatioGI50
# [19] = system: CCRF-CEM; experiment: Anticancer activity against human CCRF-CEM cells assessed as lethality incubated for 48 hrs by SRB assay; assay type: functional; conditions: read-out: LC50 (the source's name)
# [20] = system: UACC-257; experiment: Anticancer activity against human UACC-257 cells assessed as growth inhibition incubated for 48 hrs by SRB assay; assay type: functional
# [21] = system: CAKI-1; experiment: Anticancer activity against human CAKI-1 cells assessed as lethality incubated for 48 hrs by SRB assay; assay type: functional; conditions: read-out: LC50 (the source's name)
# [22] = system: SN12C; experiment: Anticancer activity against human SN12C cells assessed as total growth inhibition incubated for 48 hrs by SRB assay; assay type: functional
# [23] = system: PC-3; experiment: Anticancer activity against human PC-3 cells assessed as lethality incubated for 48 hrs by SRB assay; assay type: functional; conditions: read-out: LC50 (the source's name)
# [24] = system: CAKI-1; experiment: Anticancer activity against human CAKI-1 cells assessed as total growth inhibition incubated for 48 hrs by SRB assay; assay type: functional
# [25] = system: OVCAR-8; experiment: Anticancer activity against human OVCAR-8 cells assessed as growth inhibition incubated for 48 hrs by SRB assay; assay type: functional
# [26] = system: NCI-H226; experiment: Anticancer activity against human NCI-H226 cells assessed as growth inhibition incubated for 48 hrs by SRB assay; assay type: functional
# [27] = system: UO-31; experiment: Anticancer activity against human UO-31 cells assessed as inhibition of cell growth at 10 uM incubated for 48 hrs by SRB assay; assay type: functional; conditions: UO-31, 48 h, values are per cent of control
# [28] = system: U-251; experiment: Anticancer activity against human U-251 cells assessed as cell growth inhibition incubated for 72 hrs by MTT assay; assay type: functional
# [29] = system: MCF7; experiment: Anticancer activity against human MCF7 cells assessed as total growth inhibition incubated for 48 hrs by SRB assay; assay type: functional
# [30] = system: SK-MEL-28; experiment: Anticancer activity against human SK-MEL-28 cells assessed as lethality incubated for 48 hrs by SRB assay; assay type: functional; conditions: read-out: LC50 (the source's name)
# [31] = system: SNB-19; experiment: Anticancer activity against human SNB-19 cells assessed as growth inhibition incubated for 48 hrs by SRB assay; assay type: functional
# [32] = system: PC-3; experiment: Anticancer activity against human PC-3 cells assessed as growth inhibition incubated for 48 hrs by SRB assay; assay type: functional
# [33] = system: U-251; experiment: Anticancer activity against human U-251 cells assessed as growth inhibition incubated for 48 hrs by SRB assay; assay type: functional
# [34] = system: ACHN; experiment: Anticancer activity against human ACHN cells assessed as growth inhibition incubated for 48 hrs by SRB assay; assay type: functional
# [35] = system: TK-10; experiment: Anticancer activity against human TK-10 cells assessed as lethality incubated for 48 hrs by SRB assay; assay type: functional; conditions: read-out: LC50 (the source's name)
# [36] = system: MCF7; experiment: Anticancer activity against human MCF7 cells assessed as lethality incubated for 48 hrs by SRB assay; assay type: functional; conditions: read-out: LC50 (the source's name)
# [37] = system: LOX IMVI; experiment: Anticancer activity against human LOX IMVI cells assessed as inhibition of cell growth at 10 uM incubated for 48 hrs by SRB assay; values are per cent of control
# [38] = system: HCT-116; experiment: Anticancer activity against human HCT-116 cells assessed as growth inhibition incubated for 48 hrs by SRB assay; assay type: functional
# [39] = system: U-251; experiment: Anticancer activity against human U-251 cells assessed as total growth inhibition incubated for 48 hrs by SRB assay; assay type: functional
# [40] = system: SK-MEL-2; experiment: Anticancer activity against human SK-MEL-2 cells assessed as total growth inhibition incubated for 48 hrs by SRB assay; assay type: functional
# [41] = system: NCI-H23; experiment: Anticancer activity against human NCI-H23 cells assessed as total growth inhibition incubated for 48 hrs by SRB assay; assay type: functional
# [42] = system: SF-539; experiment: Anticancer activity against human SF-539 cells assessed as lethality incubated for 48 hrs by SRB assay; assay type: functional; conditions: read-out: LC50 (the source's name)
# [43] = system: MDA-MB-435; experiment: Anticancer activity against human MDA-MB-435 cells assessed as lethality incubated for 48 hrs by SRB assay; assay type: functional; conditions: read-out: LC50 (the source's name)
# [44] = system: EKVX; experiment: Anticancer activity against human EKVX cells assessed as lethality incubated for 48 hrs by SRB assay; assay type: functional; conditions: read-out: LC50 (the source's name)
# [45] = system: HCC 2998; experiment: Anticancer activity against human HCC 2998 cells assessed as inhibition of cell growth at 10 uM incubated for 48 hrs by SRB assay; assay type: functional; conditions: HCC 2998, 48 h, values are per cent of control
# [46] = system: SW-620; experiment: Anticancer activity against human SW-620 cells assessed as total growth inhibition incubated for 48 hrs by SRB assay; assay type: functional
# [47] = system: SK-MEL-2; experiment: Anticancer activity against human SK-MEL-2 cells assessed as lethality incubated for 48 hrs by SRB assay; assay type: functional; conditions: read-out: LC50 (the source's name)
# [48] = system: PC-3; experiment: Anticancer activity against human PC-3 cells assessed as total growth inhibition incubated for 48 hrs by SRB assay; assay type: functional
# [49] = system: MDA-MB-435; experiment: Anticancer activity against human MDA-MB-435 cells assessed as growth inhibition incubated for 48 hrs by SRB assay; assay type: functional
smiles,measurement,setting,value
O=C1CC(N2C(=O)/C(=C/C(Cl)=C/c3ccc([N+](=O)[O-])cc3)SC2=S)C(=O)N1c1ccc(O)cc1 (centres undefined),GI50,[1],1.62 µM
same,CC50,[2],6.86 µM
same,CC50,[3],8.97 µM
same,GI50,[4],6.2 µM
same,TGI,[5],15.8 µM
same,CC50,[6],44.2 µM
same,GI50,[7],2.13 µM
same,CC50,[8],> 100 µM
same,CC50,[9],41.9 µM
same,TGI,[10],2.14 µM
same,GI50,[11],0.534 µM
same,CC50,[12],8.54 µM
same,GI50,[13],1.87 µM
same,CC50,[14],6.3 µM
same,GI50,[15],1.72 µM
same,CC50,[16],5.76 µM
same,TGI,[17],5.7 µM
same,selectivity ratio,[18],13
same,CC50,[19],> 100 µM
same,GI50,[20],2.48 µM
same,CC50,[21],5.12 µM
same,TGI,[22],5.88 µM
same,CC50,[23],8.6 µM
same,TGI,[24],2.42 µM
same,GI50,[25],2.16 µM
same,GI50,[26],2.41 µM
same,"growth, % of control at 10 µM",[27],-75.2%
same,GI50,[28],1.1 µM
same,TGI,[29],10.7 µM
same,CC50,[30],9.05 µM
same,GI50,[31],1.34 µM
same,GI50,[32],0.906 µM
same,GI50,[33],0.597 µM
same,GI50,[34],1.36 µM
same,CC50,[35],7.46 µM
same,CC50,[36],> 100 µM
same,growth percent at 10 µM,[37],-83.7%
same,GI50,[38],0.751 µM
same,TGI,[39],2.21 µM
same,TGI,[40],7.83 µM
same,TGI,[41],3.52 µM
same,CC50,[42],8.43 µM
same,CC50,[43],9.37 µM
same,CC50,[44],35.3 µM
same,"growth, % of control at 10 µM",[45],-81.6%
same,TGI,[46],2.28 µM
same,CC50,[47],54.3 µM
same,TGI,[48],2.87 µM
same,GI50,[49],2.01 µM
